Values quoted from earlier work, collected in PMC7731283, “Synthesis and Biological Evaluation of Halogenated E-Stilbenols as Promising Antiaging Agents” (Molecules, 2020).

Design: method as in PMID 29315886, PMID 15779070
Conditions: compared with RSV; cited from earlier work

COc1cc(/C=C/c2ccc(O)cc2)cc(OC)c1 [pterostilbene]
metabolic stability: more metabolically stable
